Experimental data taken from patent US20240150315A1, “BETA-2 ADRENORECEPTOR MODULATORS AND METHODS OF USING SAME” (University of Maryland, Baltimore, priority 2022, published 2024).
“Also recorded” adds a separate entry of the source.

Assays:
β2AR [1] = test: cell surface ELISA of β2AR expression (receptor internalization) in HEK293 cells; format: cell-based, human; details: 15 min; for effect on ISO-induced loss of cell surface expression of wild-type or mutant β2AR: AMs 100 nM with ISO 100 nM
Protocol: ISO induced receptor internalization was assessed via cell surface ELISA as previously described. Briefly, HEK-293 cells expressing β2AR were plated on 24-well plates. Cells were treated with 100 nM ISO with vehicle or 100 nM AMs for 15 minutes. Post treatment, cells were washed and fixed with 10% formalin-buffered saline for 10 minutes on ice, washed twice, and further processed using horseradish peroxidase-conjugated chicken polyclonal anti-HA antibody (Abcam). Cells were washed and incubated with 3,3′,5,5′-tetramethylbenzidine substrate and transferred to a 96-well plate containing sulfuric acid to stop the colorimetric reaction. FlexStation3 was used to measure absorbance at 450 nm. All values were normalized to basal value (no ISO/AMs) of wild-type receptor.

[2] = test system: murine precision-cut lung slices; test: bronchodilation of methacholine-contracted murine precision-cut lung slices; parameters: species or system FVB mice expressing human β2AR in smooth muscle; details: for effect on ISO-induced increase in airway lumen area (bronchodilation): 100 nM compound, methacholine 1 μM
Protocol: (§1) To further examine the effect of PAMs and NAMs on β-agonists-mediated regulation of bronchorelaxation in a physiologically-relevant model, human and murine precision-cut lung slices were used. […] Lung slices were treated with increasing concentrations of ISO plus either vehicle or 100 nM of compounds 1001, 1002, and 1003, and a change in airway lumen area was determined.
(§2) FVB mice expressing human β2AR in smooth muscle were used in this study. The protocol for animal experiments is approved by the Institutional Animal Care and Use Committee. Murine lungs were perfused with 4% low melting agarose, allowed to solidify at 4° C. for 1 h. For human airways, a small lobe was inflated with 2% low-melting-point agarose and cores of 8 mm in diameter were made. Both human and murine lungs were then sliced (˜250 μm thick) using an oscillating tissue slicer (OTS-5000, FHC Inc). Lung slices cultured for 48 h were treated with methacholine (MCh, 1 μM), and images of the airways were obtained before and 10 min after MCh stimulation using EVOS FL Auto (Life technologies, Waltham, MA) microscope. The lung slices were treated with ISO (1 nM-10 μM) with vehicle or AMs and images of the airways were captured at 10 min intervals for a total of 50 min. Images of airways were used to calculate the area of airways using Image J software (NIH). Data from lung slice experiments were plotted as a percentage of methacholine-induced decrease in airway area compared to baseline area.

[3] = test system: human precision-cut lung slices; test: bronchodilation of methacholine-contracted human precision-cut lung slices; details: for effect on ISO-induced increase in airway lumen area (bronchodilation): 100 nM compound, methacholine 1 μM
Protocol: as §1, §2

human ASM cells = test: collagen gel contraction assay with human ASM cells, histamine-induced contraction; format: cell-based; details: 10 μM histamine; for effect on ISO-mediated inhibition of histamine-induced contraction of human ASM cells: AMs 100 nM, 10 min pretreatment
Text: β-agonists are the drug of choice for management of acute bronchoconstriction in asthmatics, acting on the target ASM cells. The Gs-cAMP-protein kinase A signaling axis effected by β-agonists inhibits contraction of ASM cells via multiple mechanisms. Therefore, it was examined whether the modulation of this signaling pathway by the discovered PAM/NAMs translated into functional differences in β2AR control of ASM contraction. In a standard gel-contraction assay, the collagen gels containing human ASM cells were incubated with different concentrations of ISO with vehicle or 100 nM AMs for 10 min, followed by stimulation with 10 μM histamine. The gel images were obtained before and after treatment with different agonists using an EVOS microscope, and a change in the gel area was calculated. Treatment with 10 μM histamine decreased the area of the gels, consistent with contraction of ASM cells. Pretreatment of gels with ISO inhibited the histamine-induced decrease in gel area (FIG. 14A).
100 μl of ASM cell suspension (5×10^5 cells/ml) containing type-I rat tail collagen (1.5 mg/ml) in F-12 medium was seeded onto a 96-well plate. After 24 h, collagen gels were loosened from the plate. The contraction was initiated by adding histamine (10 μM), with or without pretreatment with increasing concentration of ISO, with vehicle or AMs for 10 min prior to histamine. Images were obtained using an EVOS live tissue microscope before and at 10 min intervals for 40 min after the addition of histamine. Gel area was obtained for each of the mages using NIH ImageJ software. Data were expressed as percentage gel contraction and calculated using the following equation. [(T0 gel area−T10 gel area)/T0 gel area×100%].

β2AR [4] = biological target: T1, β2AR (Homo sapiens, UniProt P07550); test: β-arrestin2 recruitment to the β2AR, BRET assay in HEK293 cells; format: cell-based; details: AMs 100 nM, increasing concentrations of ISO
T1 construct: expressed in transfected cells; host or cells: HEK293
Protocol: In addition to the canonical Gs signaling, the “balanced” b-agonists induce β-arrestin recruitment to the β2AR resulting in β2AR desensitization and activation of non-canonical signaling such as ERK1/2 signaling. […] Furthermore, the effect of AMs on ISO-induced phosphorylation of ERK1/2 was tested.
β-agonist-induced recruitment of β-arrestin to the β2AR was assessed by BRET assay as described previously. HEK293 cells were transfected with pcDNA-β-arrestin2-GFP10 and pcDNA3-β2AR-RlucII and after 48 h the cells were treated with increasing concentration of ISO and vehicle or 100 nM PAMs or NAMs followed by the addition of Coelenterazine 400a for 20 mins. Change in BRET was measured using a Tecan Infinite F500 microplate reader. BRET ratios were calculated by dividing the intensity of light emitted by the GFP10 acceptor by the total light emitted by the RLucII donor.

human wild type β2AR = biological target: T2, human wild type β2AR (Homo sapiens, UniProt P07550); test: ISO-induced cAMP accumulation (ELISA) in HEK293 cells overexpressing human wild type β2AR; format: cell-based; details: AMs 100 nM, different concentrations of ISO
T2 construct: host or cells: HEK293
Text: Activation of β2AR by orthosteric ligands leads to activation of Gαs subunit, which in turn activates AC to hydrolyze ATP to produce cAMP. To determine the biological activity of the AMs of the β2AR, HEK293 cells overexpressing human wild type β2AR were stimulated with different concentrations of test compounds and evaluated for cAMP production using a cAMP ELISA. […] These compounds were used in subsequent studies.
HEK293 cell lines were obtained from the American Type Culture Collection (ATCC) and maintained in Dulbecco's modified Eagle's medium (DMEM) as described previously.
The human β2AR cDNA containing 3-HA tag at N-terminus subcloned into a pcDNA3.1 was obtained from www.cdna.org. […] Mutations were confirmed by DNA sequencing. HEK293 cells were transfected with cDNA expressing (wild type or mutant; see below) human β2AR using Lipofectamine 3000 (Invitrogen, Waltham, MA) and used for studies within 36-48 h, or were maintained in media containing G418 at 500 μg/ml concentration.
(§3) Cells were grown to full confluency in 24-well plates, serum-starved for 24 h, and then incubated with 1 mM IBMX for 10 min. Cells were then incubated with ISO (1 nM to 10 μM) or β2AR modulators alone or concomitantly for 10 min and cAMP levels were measured by ELISA (Life Technologies, Waltham, MA) as described previously.

[5] = test system: R131K, R131A, Y219F, Y219S, Y219A, F282Y, F282W, and F282A mutant β2ARs; test: ISO-induced cAMP generation in HEK293 cells expressing mutant β2AR; format: cell-based, human; details: AMs 100 nM, compared with wild-type β2AR
Protocol: To validate the identity of the computationally identified allosteric site, β2AR containing R131K, R131A, Y219F, Y219S, Y219A, F282Y, F282W, and F282A mutations was generated (FIG. 11A). Wild-type and mutant β2AR were expressed in HEK293 cells, and ISO-induced cAMP generation was measured in the presence or absence of the PAM compound 1001, or NAM compounds 1002 and 1003 (FIGS. 11B-E). The compounds were also tested at different concentrations of ISO in the cells expressing mutant β2AR (FIGS. 12A-D). The cAMP response was enhanced in cells expressing R131A and diminished in F282A mutant β2AR compared to cells expressing wild-type β2AR. […] Further, as expected, compound 1001 enhanced ISO-induced cAMP generation in cells expressing wild-type β2AR, and this effect was abolished in cells expressing mutant β2AR (FIGS. 11C-E, FIGS. 12B-D). Furthermore, NAM compounds 1002 and 1003 inhibited ISO-induced cAMP generation in wild-type β2AR expressing cells, and this inhibition was attenuated in cells expressing R131K, R131A, Y219F, Y219S, Y219A, F282Y, F282W, and F282A mutant β2ARs (FIGS. 11C-E, FIGS. 12B-D).
The human β2AR cDNA containing 3-HA tag at N-terminus subcloned into a pcDNA3.1 was obtained from www.cdna.org. Binding site residues PHE(F)282, TYR(Y)219, and ARG(R)131 were mutated to different amino acids using the QuikChange 11 XL Site-Directed Mutagenesis Kit (Agilent, Santa Clara, CA) per manufacturer's protocol. Mutations were confirmed by DNA sequencing. HEK293 cells were transfected with cDNA expressing (wild type or mutant; see below) human β2AR using Lipofectamine 3000 (Invitrogen, Waltham, MA) and used for studies within 36-48 h, or were maintained in media containing G418 at 500 μg/ml concentration. […]
as §3

mice = test: in vivo bronchodilation after MCh-induced bronchoconstriction by flexiVent; details: aerosol ISO with compound vs vehicle after MCh
Protocol: Compound 1001 augments isoproterenol (ISO)-induced bronchodilation in mice. Change in methacholine (MCh)-induced bronchoconstriction (lung resistance) upon aerosol treatment of mice with MCh followed by aerosol treatment of mice with ISO with vehicle or compound 1001 using flexiVent (Scireq) method was assessed.
In vivo lung function measurements. Lung mechanics are studied using flexiVent (Scireq) method. Briefly, anesthetized, intubated mice are ventilated with a tidal volume of 250 μl at 150 breaths/min. Mouse airways are exposed to increasing doses of methacholine (MCh; 1.56-50 mg/ml) using an in-line ultrasonic nebulizer. Following MCh-induced bronchoconstriction, mice are aerosolized with increasing concentrations of β-agonists (0.1-20 mg/ml)+AMs (100 nM). Airway resistance (Rn), tissue damping (G), and elastance (H) data (normalized to body weight) at individual doses of agonists are determined using the flexiWare software.

T1 sequence (P07550 whole entry): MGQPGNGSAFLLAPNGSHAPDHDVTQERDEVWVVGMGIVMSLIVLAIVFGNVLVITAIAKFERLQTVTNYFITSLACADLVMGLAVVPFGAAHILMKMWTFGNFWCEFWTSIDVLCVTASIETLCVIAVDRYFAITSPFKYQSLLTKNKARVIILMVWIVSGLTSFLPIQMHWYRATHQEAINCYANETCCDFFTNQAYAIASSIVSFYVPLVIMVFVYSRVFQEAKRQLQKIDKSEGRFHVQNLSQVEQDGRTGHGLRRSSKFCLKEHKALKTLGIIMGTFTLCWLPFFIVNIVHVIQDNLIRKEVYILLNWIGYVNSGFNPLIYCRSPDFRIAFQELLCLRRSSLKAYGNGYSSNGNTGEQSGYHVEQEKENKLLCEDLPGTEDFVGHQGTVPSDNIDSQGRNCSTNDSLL
T2 sequence (P07550 whole entry): as above

Row | Compound | cell surface expression of the β2AR (β2AR [1]; ISO 100 nM alone) | airway lumen area (bronchodilation) ([2]; ISO alone) | airway lumen area (bronchodilation) ([3]; ISO alone) | histamine-induced decrease in gel area (human ASM cells; ISO pretreatment alone) | effect on ISO-induced loss of cell surface expression of wild-type or mutant β2AR (β2AR [1]) | effect on ISO-induced β-arrestin2 recruitment to the β2AR (change in BRET) (β2AR [4]) | effect on ISO-induced cAMP accumulation (human wild type β2AR) | effect of the modulator on ISO-induced cAMP generation in cells expressing mutant β2AR [5] | effect on ISO-induced increase in airway lumen area (bronchodilation) [2] | effect on ISO-induced increase in airway lumen area (bronchodilation) [3] | effect on ISO-mediated inhibition of histamine-induced contraction of human ASM cells (human ASM cells) | effect on ISO-induced bronchodilation (lung resistance) (mice)
1 | CC(C)NCC(O)c1ccc(O)c(O)c1 (centres unmarked) [ISO, isoproterenol, reference compound] | loss of cell surface expression | dose-dependent increase | dose-dependent increase | inhibited |  |  |  |  |  |  |  | 
2 | OCCC1CN(Cc2ccccn2)CCN1C1CCCC1 (centres unmarked) [compound 1001] |  |  |  |  | did not affect | did not alter | most effective PAM; also recorded: enhanced | abolished | significantly enhanced | significantly enhanced | significantly enhanced | augments
3 | Cc1nc2ccccc2nc1CN1CCN(C2CCCCC2)C(CCO)C1 (centres unmarked) [compound 1002] |  |  |  |  | did not affect | did not alter | most effective NAMs; also recorded: inhibited | attenuated | mitigated | mitigated | either slightly reduced or had no effect | 
4 | Cc1cnn(-c2cc(N/N=C/c3ccccc3O)ncn2)c1 [compound 1003] |  |  |  |  | did not affect | did not alter | most effective NAMs; also recorded: inhibited | attenuated | mitigated | mitigated | either slightly reduced or had no effect | 
